Data reported in patent US20230285374A1, “THERAPEUTIC METHODS USING VADADUSTAT” (Akebia Therapeutics, Inc., priority 2019, published 2023).

Tested on: subjects with anemia and Non-Dialysis-Dependent Chronic Kidney Disease (NDD-CKD)
Experiment: Phase 3 open-label, active-controlled NDD-CKD Conversion/Correction Study (J01), Compound 1 vs darbepoetin alfa, 52 weeks
Type: in vivo, human
Source text: This example describes the first open-label, active-controlled Phase 3 study of Compound 1 (Vadadustat or VDT or MT-6548) for treatment of anemia in subjects with Non-Dialysis-Dependent Chronic Kidney Disease (NDD-CKD) for up to 52 weeks. Efficacy and safety of Compound 1 was compared with darbepoetin alfa (DA) for the treatment of anemia in subjects with NDD-CKD. A subset of the subjects were switching to treatment with Compound 1 from an ESA therapy. […] These findings support the use of vadadustat as a durable, effective therapy for anemia in patients with NDD-CKD.
The study population consisted of subjects 20 years of age with NDD-CKD, estimated glomerular filtration rate (eGFR)<60 mL/min/1.73 m^2, and hemoglobin (Hb) values greater than or equal to 8.0 g/dL and less than 11.0 g/dL (correction group) or greater than or equal to 9.0 g/dL and less than 12.5 g/dL (conversion group), who were currently treated with an erythropoiesis stimulating agent (ESA) for anemia.
Following randomization, patients were treated for a period of up to 52 weeks. Patients were then observed post treatment for a period of two (2) weeks (“follow up” period).
In order to be eligible for this study, patients were required to meet all of the following inclusion criteria: • Be at least 20 years of age, inclusive; • Have diagnosis of Chronic Kidney Disease with an estimated glomerular filtration rate (eGFR)<60 mL/minute/1.73 m^2 [eGFR (mL/min/1.73 m^2)=194×(serum creatinine)^−1.094×(age)^−0.287(females: ×0.739)] at screening; • Not have received dialysis within 8 weeks prior to the screening period nor expect to start dialysis during the treatment period; • ESA Treatment • Correction group: not receiving ESA for at least eight (8) weeks just before screening; • Conversion group: receiving the same formulation of ESA using the same administration route and the same dose interval (the dose interval should be the one described in the package insert for the ESA formulation) for at least 8 weeks just before screening using the dosages described below: Epoetin alfa and epoetin beta: ≥12,000 IU every 2 weeks Darbepoetin alfa: ≥120 μg every 2 weeks Epoetin beta pegol: ≥250 μg every 4 weeks • Baseline Hb: Correction group: ≥8.0 to <11.0 g/dL Conversion group: ≥9.0 to ≤12.0 g/dL • Have a difference of <1.5 g/dL in Hb for the latest two tests in the screening period; • Have serum ferritin values of ≥100 ng/mL or transferrin saturation of ≥20% during the screening period; and • Have folic acid and vitamin B12 values above standard minimum values during the screening period.
Subjects deemed ineligible for into the study included those who: • Have anemia due to a cause other than CKD; • Have active bleeding or blood loss during the eight (8) weeks just before screening; • Have received a red blood cell transfusion during the eight (8) weeks just before screening; • Have uncontrolled hypertension; • Have active ocular fundus disease or cannot undergo an ocular fundus examination; • Have been diagnosed with cardiovascular disease, malignancy, or hemisiderosis; • Have a history of adverse drug reactions or a drug allergy; and • Have previously received Compound 1.
• Average Hb level at weeks 20 and 24 of the treatment period.
• Hb level at each treatment visit; and • The proportion of patients within the target Hb range (11.0-13.0 g/dL).
Safety endpoints for this study were defined as follows: • Adverse events (AEs); • Adverse drug reactions; and
Other endpoints for this study were defined as follows: • Iron-related parameters: serum ferritin, transferrin saturation (TSAT), total iron-binding capacity (TIBC), hepcidin, serum iron, and monthly dose of iron by any route of administration (oral and intravenous); and • Red blood cell indices. […]

[1] = 52 weeks LOCF compared with baseline

In the case of `O=C(O)CNC(=O)c1ncc(-c2cccc(Cl)c2)cc1O` [Compound 1, Vadadustat], the “Deaths due to AEs” value (52 weeks) is reported as 0 (0.0) n (%), the “MCH, change” value [1] is reported as “significantly increased” and the “MCHC, change” value [1] is reported as “significantly increased”. The “MCV, change” value [1] was “significantly increased”, the “RDW, change” value [1] was “no significant differences” and the “TIBC, change” value [1] was “significant increase”. For the same molecule, the “TSAT, change” value [1] was “no significant difference”, the “hepcidin, change” value [1] was “significant decreases” and the “serum ferritin, change” value [1] was “significant decreases”. For the same molecule, the “week at which mean Hb reached the target range (11.0-13.0 g/dL)” value (“week … (11.0-13.0 g/dL)” for short) (ESA non-users) was 8 week, the “proportion of patients with Hb levels within the target range” value (ESA non-users, Week 52) was 71.4% and the “proportion of patients with Hb levels within the target range” value (ESA non-users, baseline) was 15.5%. For the same molecule, the “week … (11.0-13.0 g/dL)” value (ESA users) was 8 week, the “proportion of patients with Hb levels within the target range” value (ESA users, Hb<11.0 g/dl subgroup, Week 52) was 78.3% and the “proportion of patients with Hb levels within the target range” value (ESA users, Hb<11.0 g/dl subgroup, baseline) was 4.7%. The “proportion of patients with Hb levels within the target range” value (ESA users, Hb≥11.0 g/dl subgroup, Week 52) was 80.0%, the “proportion of patients with Hb levels within the target range” value (ESA users, Hb≥11.0 g/dl subgroup, baseline) was 91.9% and the “proportion of patients with Hb levels within the target range” value (ESA users, Week 52) was 79.2%. For the same molecule, the “proportion of patients with Hb levels within the target range” value (ESA users, baseline) was 45.0%, the “Hb levels during the treatment period” value (ESA users, screening Hb ≥11.0 g/dl subgroup) was “maintained within the target range throughout the treatment period” and the “time at which mean Hb reached the target range” value (ESA users, screening Hb<11.0 g/dl subgroup) was 12 weeks. For the same molecule, the “proportion of patients within the target Hb range” value (conversion group, week 24) was 66.7%, the “average Hb at baseline” value (conversion patients) was 10.68 g/dL and the “average Hb at week 24” value (conversion patients) was 11.27 g/dL. For the same molecule, the “average Hb at baseline” value (correction patients) was 10.17 g/dL, the “average Hb at week 24” value (correction patients) was 11.85 g/dL and the “proportion of patients within the target Hb range of 11.0-13.0 g/dL” value (correction patients, week 24) was 69.7%. For the same molecule, the Adverse drug reaction (human, in vivo, 52 weeks) was 20 (13.2) n (%), the “Cardiac failure (AE of special interest)” value (human, in vivo, 52 weeks) was 6 (4.0) n (%) and the “Cardiovascular event (AE of special interest)” value (human, in vivo, 52 weeks) was 3 (2.0) n (%). The Constipation (human, in vivo, 52 weeks) was 14 (9.3) n (%), the Diarrhea (human, in vivo, 52 weeks) was 18 (11.9) n (%) and the “Discontinuation due to AEs” value (human, in vivo, 52 weeks) was 10 (6.6) n (%). For the same molecule, the “Dose reduction or interruption of study drug due to AEs” value (human, in vivo, 52 weeks) was 11 (7.3) n (%), the “Hyperkalemia (AE of special interest)” value (human, in vivo, 52 weeks) was 1 (0.7) n (%) and the “Malignancy (AE of special interest)” value (human, in vivo, 52 weeks) was 2 (1.3) n (%). The Nasopharyngitis (human, in vivo, 52 weeks) was 37 (24.5) n (%), the “Pulmonary hypertension (AE of special interest)” value (human, in vivo, 52 weeks) was 0 (0.0) n (%) and the “Retinal disorder (AE of special interest)” value (human, in vivo, 52 weeks) was 4 (2.6) n (%). The “Serious AEs” value (human, in vivo, 52 weeks) was 42 (27.8) n (%), the “Serious adverse drug reaction” value (human, in vivo, 52 weeks) was 0 (0.0) n (%) and the “Subjects with ≥ 1 AE” value (human, in vivo, 52 weeks) was 136 (90.1) n (%). For the same molecule, the constipation (human, in vivo, 52 weeks) was 9.3%, the diarrhea (human, in vivo, 52 weeks) was 11.9% and the “incidence of adverse events (AEs), at least one AE” value (human, in vivo, 52 weeks) was 90.1%. For the same molecule, the “incidence of serious adverse events (SAEs)” value (human, in vivo, 52 weeks) was 27.8%, the nasopharyngitis (human, in vivo, 52 weeks) was 24.5% and the “mean Hb level at week 52” value (overall population) was 11.51 g/dL. The “week … (11.0-13.0 g/dL)” value (overall population) was 8 week, the “LSMean of the average Hb at weeks 20 and 24” value (overall population, MMRM) was 11.66 g/dL and the “Difference (Compound 1-Darbepoetin alfa) in LSMean of the average Hb at weeks 20 and 24” value (overall population, noninferiority margin −0.75 g/dL) was -0.26 g/dL.
